{"source": "patent US20170266266A1", "about": "“Functions of 55 Newfound Proteins and Their Medicinal Application in the Treatment and Prevention of Disease” (priority 2012, published 2017)", "key": {"[1]": {"test_system": "fatty streak lesions in rabbits on high fat diet", "format": "in vivo, rabbit", "conditions": "for TC/HDL-C: Atorvastatin group", "method": "The rabbits were fasted for 12 hrs before the beginning of the experiments. Blood parameters were then tested as the normal level of plasma indicators. A total of 52 rabbits were purchased at different time, four of them were used as normal control and fed with normal diet the whole time during the experiments. […] Plasma concentrations of total cholesterol (TC), […] (TG), low density lipoprotein-cholesterol (LDL-C), very low density lipoprotein-cholesterol (VLDL-C), high density lipoprotein-cholesterol (HDL-C) were quantified by enzymatic assays. TC/HDL-C or ([…] ratios were then determined. Animals were sacrificed under deep anesthesia with sodium pentobarbital 25 mg/kg IV. The entire aorta from the aortic valve to the iliac bifurcation was removed from each rabbit and opened longitudinally. […] Atheromatous lesions were measured without staining Atheromatous lesions were manually traced in the photographs, and the percent area of the atheromatous lesions was calculated. Sample of aorta from animals were homogenated. And the content of lipid was determined."}, "[2]": {"test_system": "atherosclerosis in ApoE knock out mouse on high fat diet", "source_text": "10 ApoE ko mice were fed with regular chow diet and used as negative control group. 50 ApoE ko mice were fed with high fat diet (35% kcal fat, 1% cholesterol) for 8 weeks, and then the plasma samples were collected for lipid profile measurement before the treatment. 50 ApoE ko mice were assigned into 5 groups based on the fasting overnight plasma TC and HDL level.\n5.2. Study Timeline: • 23 Dec. 2011: 60 ApoE mice arrived at chempartner and were housed in the animal facility in the building #3 for the acclimation. • 6 Jan. 2012: Measured the body weight for each mouse. 50 mice were fed with high fat diet and 10 mice were fed with normal chow diet. • 2 Mar. 2012: All mice were fasted over night and plasma samples (about 300 ul whole blood) were collected for lipid profile measurement before treatment with RAAS antibody. • 19 Mar. 2012 to 6 Apr. […] 2012: All mice were fasted over night and plasma sample for each mouse (about 300 ul whole blood) was collected for lipid profile measurement after 16 weeks treatment. Blood glucose was also measured for each mouse. • 9 Jul. 2012: The study was terminated after 16 weeks treatment. Measure BW, sacrificed each mouse, dissected the aorta, heart, liver and kidney and fixed them in 4% PFA.\nAntibody products were administrated by intraperitoneal injection every two days (Monday, Wednesday, and Friday). and the positive compound was administered by p.o every day.\nThe body weight was weighed weekly during the period of treatment. The fasting overnight blood glucose was measured at the end of study by Roche glucometer.\nAbout 300 ul of blood sample was collected from the orbital vein for each mouse and centrifuged at 7000 rpm for 5 min at 4E and the plasma lipid profile was measured by Roche Modular automatic biochemistry analyzer in DaAn Medical Laboratory\nAfter RAAS antibody products treatment for 16 weeks, all mice were sacrificed. Measured body weight and collected blood sample for each mouse. Weighed liver weight and saved a tiny piece of liver into 4% paraformaldehyde (PFA) fixation solution for further analysis. At same time, take the photos with heart, lung, aortas and two kidneys.\n5.8. Oil Red Staining Procedure: • 1. Sacrificed the mice and dissected the heart, aorta, and arteries under dissecting microscope. • 2. Briefly wash with PBS and fixed in 4% paraformaldehyde (PFA) overnight at 4[…]. • 3. Rinse with 60% isopropanol • 4. Stain with freshly prepared Oil Red O working solution 10 min. • 1). Oil red O stock stain: 0.5% powder in isopropanol • 2). Working solution: dilute with distilled water (3:2) and filter with membrane (0.22 um) • 5. Rinse with 60% isopropanol 10 second. • 6. Dispel the adherent bit fat outside of the aorta under the dissecting microscope. • 7. Cut the vascular wall gently and keep the integrated arteries using the micro scissors. • 8. Unfold the vascular inner wall with the cover slides and fix it by water sealing tablet.\nScanning the glasses slides with the Aperio ScanScope system and analyze with the image proplus software to measure the area of atherosclerotic plaque lesion. The results were expressed as the percentage of the total aortic surface area covered by lesions. The operation procedure of software was briefly described as follow: Converted the sys version photos into JPG version, then calibrated it and subsequently selected the red regions and then calculate the total area automatically by image proplus software.\nThe results were expressed as the Mean±SEM and statistically evaluated by student's t-test."}, "[3]": {"test_system": "atherosclerosis in New Zealand white rabbit on high fat diet", "conditions": "rabbit, in vivo", "method": "New Zealand rabbits were adopted in this animal study and divided into 5 groups. They were high dose, medium dose and low dose of treatment, positive and vehicle control. The treatment groups were given APOAI via auricular vein once a week. […] Positive controls were given Liptor daily by p.o. with a dose of 0.45 mg/kg body weight. […] The study duration was 19 weeks. At the end of study, all animals were sacrificed. […] Lipid content was examined in liver and aorta. And liver index was also determined.\nThe body weight was between 1.8-2.0 kg. The animals were quarantined for 5-10 days with normal diet before study.\nAnimals were randomly divided into 5 groups including vehicle control, high dose, medium dose, low dose and positive control group. Ten to 14 rabbits were in one group. Each rabbit was fed with 30 gram of high fat diet followed by 120 gram of normal diet with free access to water.\nThe frequency of dosing was once a week. Dose was 80, 40, 20 mg/kg body weight respectively. Drug was given by intravenous injection via auricular vein with the volume of 5 mL.\n5.1 body weight: body weight of each rabbit was determined once a week.\nResulted blood samples were kept still for 2 hours and then spin with 4,000 rpm for 10 min.\nAbdomen cavity was opened. Whole blood was taken from heart. Heart was harvested along with 7 cm of aorta.\nThe aorta was dissected for 0.5 cm from aortic arch, split longitudinally and then kept in cryo-preservation tube for later lipid analysis. One piece of this sample was fixed in formalin for further pathological analysis.\nThe weight of liver was determined immediately. Two pieces of specimen were cut from hepatic lobe.\nResulted blood samples were kept still for 2 hours.\nThe aorta was dissected and opened for 7.5 cm from aortic arch longitudinally. Pictures were taken and atherosclerosis changing was analyzed."}, "[4]": {"test_system": "Influenza A/Weiss/43 H1N1 in MDCK cells", "experiment": "microbe, parasite or virus in culture", "format": "cell-based"}, "Influenza H1N1 A/WSN/33": {"test_system": "Influenza H1N1 A/WSN/33", "format": "in vivo, BALB/c mice"}, "3T3-L1 adipocytes": {"test_system": "3T3-L1 adipocytes", "experiment": "Glucose uptake assay", "format": "cell-based", "method": "Study Protocol • 1. 3T3-L1 fibroblasts were cultured in DMEM containing 25 mM glucose and 10% bovine calf serum at 37 °C with 5% CO2. • 2. 3T3-L1 fibroblasts were differentiated into adipocytes 2 days post confluent with the same DMEM medium containing 1 ug/ml insulin (Sigma-Aldrich), 1 uM dexamethasone (Sigma-Aldrich), and 0.5 mM isobutyl-1-methylxanthine (Sigma-Aldrich). • 3. Media were replaced with DMEM containing 10% FBS and 1 ug/ml insulin and culture 2 days. • 4. Seed 1×10^5 3T3-L1 adipocytes to 96 wells cell culture plate (DMEM, 10% FBS, 1% PS, 1 ug/ml insulin) • 5. Before experiments, adipocytes were incubated in serum free medium for starvation overnight. • 6. Dilute each sample 100 folds (2 ul primal solution to 198 ul buffer) in corresponding buffer. Add 2 ul of sample primal solution, 100 folds diluted solution and buffer to 198 ul KRPH buffer. • 7. 3T3-L1 adipocytes were washed with KRPH buffer (5 mM Na2HPO4, 20 mM HEPES, pH 7.4, 1 mM MgSO4.1 mM CaCl2, 136 mM NaCl, […], and 1% BSA) three times, Add 90 ul/well KRPH containing human insulin and samples to assay plate, incubate for 30 min at 37[…] and 5% CO2. • 8. Add 10 ul KRPH containing 0.25 uCi 1-[3H]-2-deoxyglucose/well and 50 umol/l 2-deoxyglucose and Incubate 10 min in 95% air/5% CO2 at 37[…] • 9. The transport was stopped by rinsing the cells with cold PBS containing 10 mM glucose for three times. • 10. The adipocytes were lysed in 50 ul 10% KOH for 5 min • 11. Then the aliquots were subjected to scintillation counting using TriCap."}, "[5]": {"conditions": "H1N1 + Oseltamivir, dose printed 0.2/0.4 ml/mouse"}}, "note": "Where two headings read alike, the source gives them in different places."}
{"compound": "CC(C)c1c(C(=O)Nc2ccccc2)c(-c2ccccc2)c(-c2ccc(F)cc2)n1CC[C@@H](O)C[C@@H](O)CC(=O)O", "note": "[Atorvastatin, reference compound]", "values": [{"measurement": "lipid con. at dissected aorta", "setting": "[1]; Atorvastatin group (n = 4), triglyceride content", "value": "0.0274 ± 0.006", "unit": "µmol/mg"}, {"measurement": "TC/HDL-C", "setting": "[1]; Wk 0 (start of high fat diet)", "value": 1.844}, {"measurement": "TC/HDL-C", "setting": "[1]; Wk 10 (before Atorvastatin administration)", "value": 4.511}, {"measurement": "TC/HDL-C", "setting": "[1]; Wk 18 (end of Atorvastatin administration)", "value": 6.811}, {"measurement": "liver weight", "setting": "[2]; 40 mg/kg, 16 weeks treatment", "value": "significantly reduced"}, {"measurement": "TC net change", "setting": "[2]; 16 week treatment", "value": "not reduce the TC net change"}, {"measurement": "net change of LDL", "setting": "[2]; 16 week treatment", "value": "no significant difference in net change of LDL"}, {"measurement": "plaque area and percentage of plaque area in total inner vascular area", "setting": "[2]; 16 weeks", "value": "mild trend to decrease percentage of plaque area"}, {"measurement": "plaque lesion area of aorta", "setting": "[2]; 16 weeks treatment, atorvastatin 40 mg/kg", "value": "did not affect the plaque lesion area of aorta"}]}
{"compound": "CC(C)c1c(C(=O)Nc2ccccc2)c(-c2ccccc2)c(-c2ccc(F)cc2)n1CC[C@@H](O)C[C@@H](O)CC(=O)O", "note": "[Liptor, reference compound]", "values": [{"measurement": "calcification, pathological examination", "setting": "[3]", "value": "one animal with calcification"}]}
{"compound": "CCOC(=O)C1=C[C@@H](OC(CC)CC)[C@H](NC(C)=O)[C@@H](N)C1", "note": "[Osletamivir, Oseltamivir]", "values": [{"measurement": "EC50", "setting": "[4]; A/Weiss/43 H1N1, MDCK cells, read-out: EC50", "value": 890, "unit": "nM"}, {"measurement": "EC50", "setting": "[4]; Influenza A/Weiss/43 H1N1 in MDCK cells, MTT after 72 hours, positive control, read-out: anti H1N1 EC50s", "value": 890, "unit": "nM"}, {"measurement": "mice survived to the end of experiment", "setting": "Influenza H1N1 A/WSN/33; 1 mg/kg orally twice daily for 8 days", "value": "4 out of 5"}, {"measurement": "Mean day to death ± S.D.", "setting": "Influenza H1N1 A/WSN/33; [5]", "value": ">14 ± 0.0", "unit": "days"}, {"measurement": "Survivor/total", "setting": "Influenza H1N1 A/WSN/33; [5]", "value": "4/4"}, {"measurement": "body weight drop", "setting": "Influenza H1N1 A/WSN/33; mouse, in vivo", "value": "< 15", "unit": "%"}]}
{"compound": "insulin", "values": [{"measurement": "EC50", "setting": "3T3-L1 adipocytes; dose response AFOD 1 / AFOD RAAS 109, run N1", "value": 7.08, "unit": "nM"}, {"measurement": "EC50", "setting": "3T3-L1 adipocytes; dose response AFOD 1 / AFOD RAAS 109, run N2", "value": 8.64, "unit": "nM"}, {"measurement": "EC50", "setting": "3T3-L1 adipocytes; dose response AFOD RAAS 107 / AFOD KH, run N1", "value": 3.09, "unit": "nM"}, {"measurement": "EC50", "setting": "3T3-L1 adipocytes; dose response AFOD RAAS 107 / AFOD KH, run N2", "value": 10.2, "unit": "nM"}, {"measurement": "EC50", "setting": "3T3-L1 adipocytes; dose response AFOD RAAS 107 / AFOD KH, run N3", "value": 4.17, "unit": "nM"}]}
